# Experimental data published in US11179471B2, “Peptide for cytosolic delivery” (priority 2017, dated 2021).
# Entries after “also recorded” stand apart in the source; their conditions may differ. Residues, ends and D or L forms follow the SMILES beside them.
# Assays:
# Type in all cases: cell-based
# HeLa cells [1] = assay: Release of Alexa 488-dextran (10 kDa) into the cytoplasm, confocal microscopy
# Description: Cells; HeLa, peptides; 40 μM, Alexa 488-dextran (10 kDa); 200 μg/mL, treatment; 1 hr in α-MEM(−).
# Cells; HeLa, peptides; 40 μM, Alexa 488-dextran (10 kDa); 200 μg/mL, treatment; 1 hr in α-MEM(−). The results are presented as means ±SE (n=3). **; p<0.01 (Student's t-test).
# Cells; HeLa, peptides; 40 μM, Alexa 488-dextran (10 kDa); 200 μg/mL, treatment; 1 hr in α-MEM(−). Results are presented as means±SE (n=3). *; p<0.05, **; p<0.01, ***; p<0.001 (one-way ANOVA followed by the Tukey-Kramer honestly significant difference test (post-hoc test)).
# (§1) In the presence of each peptide obtained in Example 1 (L17E, L17E/Q21E, HA/E1, HA/E2) (40 μM) or in the absence of the peptides (a control, no peptide), HeLa cells and Alexa 488-dextran (Molecular Probes, 10 kDa) (200 μg/mL) were treated in α-MEM(−) for 1 hour. The cells were washed, and observed with a confocal microscope.
# as §1, with “L17Aad)” for “L17E/Q21E, HA/E1, HA/E2)”
# as §1, with “(HAad, HA/E2, L17Aad, L17E)” for “(L17E, L17E/Q21E, HA/E1, HA/E2)”
# When HeLa cells were incubated with Alexa 488-dextran (10 kDa) (200 μg/mL) as a macromolecular drug model in the presence of HAad (40 μM) in α-MEM(−) for 1 hour, Alexa 488-dextran release into about 75% of cells (cytosol) was observed. In contrast, when the incubation was performed in the presence of L17E, Alexa 488-dextran release into about 50% of the cells was observed.
# HeLa cells, Alexa 488-dextran (Molecular Probes, 10 kDa) (200 μg/mL), and HAad; or HeLa cells, Alexa 488-dextran, (Molecular Probes, 10 kDa) (200 μg/mL), and HAad-homoR (20 μM) were treated in α-MEM(−) for 1 hour. The cells were washed, and observed with a confocal microscope.
# NIH3T3 cells = assay: Intracellular release of dextran (10 kDa) in NIH3T3 cells
# Description: Intracellular release of dextran is more difficult in NIH3T3 cells than in HeLa cells. NIH3T3 cells and dextran (10 kDa) were incubated in the presence of HAad, HA/E2, or L17E (40 μM each) in DEME(−) medium for 1 hour in the same manner as in Example 6.
# RAW 264.7 cells = assay: Cell-killing assay by intracellular delivery of toxin protein saporin (WST-8); details: saporin 10 μg/mL, 40 μM
# Description: Saporin is known as a cytotoxin that kills cancer cells by its intracellular delivery. RAW 264.7 cells and saporin (10 μg/mL) were incubated in the presence of HAad, HA/E2, or L17E (40 μM each) in α-MEM(−) medium for 1 hour. After the cells were then washed and the medium was replaced with DMEM(+), the cells were further incubated for 6 hours. The cell viability (%) was assayed by WST-8 assay (FIG. 10).
# HeLa cells [2] = assay: Nuclear accumulation of NLS-EGFP; details: NLS-EGFP 10 μM; peptide 40 μM; α-MEM(−) 1 hour
# Description: The cells and NLS-EGFP (10 μM) were incubated in the presence of HAad or L17E (40 μM each) in α-MEM(−) medium for 1 hour in the same manner as in Example 6. If NLS-EGFP is intracellularly released while maintaining its activity, localization of green fluorescence in the nuclei is observed. […] A high activity of HAad to release endosome-encapsulated substances was also confirmed in this system.
# HeLa cells [3] = assay: Release of Alexa 488-dextran (10 kDa) into the cytoplasm, confocal microscopy; remark: listed apart in the source
compound,measurement,setting,value
"CC[C@H](C)[C@H](N)C(=O)N[C@@H](Cc1c[nH]c2ccccc12)C(=O)N[C@@H](CC(C)C)C(=O)N[C@H](C(=O)N[C@@H](C)C(=O)N[C@@H](CC(C)C)C(=O)N[C@@H](CCCCN)C(=O)N[C@@H](Cc1ccccc1)C(=O)N[C@@H](CC(C)C)C(=O)NCC(=O)N[C@@H](CCCCN)C(=O)N[C@@H](C)C(=O)N[C@@H](C)C(=O)N[C@@H](C)C(=O)N[C@@H](CCCCN)C(=O)N[C@@H](C)C(=O)N[C@@H](CCCC(=O)O)C(=O)N[C@@H](C)C(=O)N[C@@H](CCCCN)C(=O)N[C@@H](CCC(N)=O)C(=O)N[C@@H](CCCC(=O)O)C(=O)N[C@@H](CC(C)C)C(=O)N[C@@H](CO)C(=O)N[C@@H](CCCCN)C(=O)N[C@@H](CC(C)C)C(N)=O)[C@@H](C)O [HAad, H-IWLTALKFLGKAAAKAXAKQXLSKL-amide] (HELM PEPTIDE1{I.W.L.T.A.L.K.F.L.G.K.A.A.A.K.A.[O=C(O)CCC[C@H](N[*:1])C(=O)[*:2]].A.K.Q.[O=C(O)CCC[C@H](N[*:1])C(=O)[*:2]].L.S.K.L.[am]}$$$$V2.0)",cells in which release of Alexa 488-dextran into the cytoplasm was observed,"HeLa cells [1]; peptide 20 μM, Alexa 488-dextran (10 kDa) 200 μg/mL, 1 hour in α-MEM(−)",about 40%
same,"endosome-encapsulated substance (Alexa 488-dextran) releasing activity, in words","HeLa cells [1]; peptide 40 μM, Alexa 488-dextran 200 μg/mL, 1 hr, compared with L17E",higher endosomal content release activity than L17E; also recorded: Significant outflow; also recorded: much more effectively
same,cells in which Alexa 488-dextran release into the cytosol was observed,"HeLa cells [1]; peptide 40 μM, Alexa 488-dextran (10 kDa) 200 μg/mL, 1 hour in α-MEM(−)",about 75%
same,intracellular release of dextran relative to L17E,NIH3T3 cells; 40 μM,twice
same,cells in which intracellular release of dextran was observed,"NIH3T3 cells; peptide 40 μM, dextran (10 kDa), DEME(−) medium 1 hour",about 35%
same,cell viability relative to that in the presence of L17E,RAW 264.7 cells,¼
same,cells in which localization of NLS-EGFP in the nuclei was observed,HeLa cells [2],about 84%
same,EC50,"HeLa cells [3]; Alexa 488-dextran (10 kDa) 200 μg/mL, 1 hour, read-out: peptide concentration required to detect the signal of intracellularly released Alexa 488-dextran in 50% of the cells",20 µM
same,EC50 relative to L17E,"HeLa cells [3]; dextran release, HAad vs L17E",½
